This assay deals with human serum albumin (HSA) (Homo sapiens, UniProt P02768). The experiment in a line: zonal elution, high-performance affinity chromatography on entrapped HSA. It counts as binding.
Sequence of human serum albumin (HSA) (P02768 25-609): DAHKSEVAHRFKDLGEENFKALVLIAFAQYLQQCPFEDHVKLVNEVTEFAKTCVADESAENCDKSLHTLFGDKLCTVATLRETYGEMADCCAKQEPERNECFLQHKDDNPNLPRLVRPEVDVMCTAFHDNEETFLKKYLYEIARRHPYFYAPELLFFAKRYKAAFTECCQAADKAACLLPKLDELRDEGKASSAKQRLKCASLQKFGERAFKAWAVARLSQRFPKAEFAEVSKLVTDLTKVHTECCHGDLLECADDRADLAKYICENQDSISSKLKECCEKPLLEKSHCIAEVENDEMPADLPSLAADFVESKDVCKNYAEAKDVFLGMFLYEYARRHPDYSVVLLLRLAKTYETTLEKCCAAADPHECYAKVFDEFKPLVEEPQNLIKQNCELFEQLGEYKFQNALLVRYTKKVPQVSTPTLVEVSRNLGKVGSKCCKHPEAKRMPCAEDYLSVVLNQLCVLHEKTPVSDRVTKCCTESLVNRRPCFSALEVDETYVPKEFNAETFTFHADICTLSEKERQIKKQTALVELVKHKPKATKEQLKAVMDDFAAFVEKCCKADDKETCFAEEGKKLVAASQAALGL
As for `CN(C)CCC=C1c2ccccc2CCc2ccccc21` [amitriptyline], the Kd (as a rule, the concentration at which binding is half-saturated) is 17.9 µM. With `O=C(N[C@H](CO)[C@H](O)c1ccc([N+](=O)[O-])cc1)C(Cl)Cl` [chloramphenicol], the Kd is 625 µM.

As for `CNCCC=C1c2ccccc2CCc2ccccc21` [nortriptyline], the Kd was 16.1 µM.

These data come from PMC4862888 (Journal of chromatography. B, Analytical technologies in …, 2015).
